The values that follow come from patent US11147796B2, “Agent for preventing or ameliorating hearing impairment” (Tohoku University, priority 2017, dated 2021).

As usually defined, the melting point is the temperature of the solid-liquid transition.

SMILES strings stand for the structures.

Turning to `CCOc1ccc2[nH]cc(CC(=O)O)c2c1` [compound #37, 5-Ethoxy-3-indoleacetic Acid], the melting point was 86 to 92.7 °C.
The compound `O=C(CC(C(=O)O)c1c[nH]c2c(Cl)cccc12)c1ccc(F)cc1F` (centres unmarked) [Compound (5-1), 2-(7-chloro-1H-indol-3-yl)-4-(2,4-difluorophenyl)-4-oxo-butanoic Acid] yielded a melting point of 225 to 227 °C.
With `CCCCCOc1ccc2cccc(CC(=O)O)c2c1` [compound #34, α-(7-Pentoxy-1-naphthalenyl)-acetic Acid] the figure was 104 to 106 °C; with `COc1cccc2c(C(CC(=O)c3ccc(F)cc3F)C(=O)O)c[nH]c12` (centres unmarked) [Compound (5-2), 4-(2,4-difluorophenyl)-2-(7-methoxy-1H-indol-3-yl)-4-oxo-butanoic Acid], 181 to 183 °C; with `CCCCOc1ccc2cccc(CC(=O)O)c2c1` [compound #33, α-(7-Butoxy-1-naphthalenyl)-acetic Acid], 102 to 104 °C.
In turn, `COc1ccc2[nH]cc(C(CC(=O)c3ccc(F)cc3F)C(=O)O)c2c1` (centres unmarked) [Compound (3-4), 4-(2,4-difluorophenyl)-2-(5-methoxy-1H-indol-3-yl)-4-oxo-butanoic Acid] had a melting point of 205 to 206 °C.
As to `O=C(CC(C(=O)O)c1c[nH]c2cccc(Cl)c12)c1ccc(F)cc1F` (centres unmarked) [Compound (2-1), 2-(4-chloro-1H-indol-3-yl)-4-(2,4-difluorophenyl)-4-oxo-butanoic Acid], the melting point fell in the range of 203 to 204 °C.
As for `Cc1ccc2[nH]cc(C(CC(=O)c3ccc(F)cc3F)C(=O)O)c2c1` (centres unmarked) [Compound (3-3), 4-(2,4-difluorophenyl)-2-(5-methyl-1H-indol-3-yl)-4-oxo-butanoic Acid], the figure is 200 to 202 °C; as for `CCCn1cc(C(CC(=O)c2ccc(C)cc2C)C(=O)O)c2ccccc21` (centres unmarked) [compound 6, 4-(2,4-Dimethylphenyl)-2-(1-propyl-1H-indol-3-yl)-4-oxo-butanoic Acid], 139 to 141 °C; as for `O=C(CC(C(=O)O)c1c[nH]c2cc(F)ccc12)c1ccc(F)cc1F` (centres unmarked) [Compound (4-1), 4-(2,4-difluorophenyl)-2-(6-fluoro-1H-indol-3-yl)-4-oxo-butanoic Acid], 210 to 214 °C.
`Cn1cc(C(CC(=O)c2ccc(F)cc2F)C(=O)O)c2ccccc21` (centres unmarked) [Compound (6-1), 4-(2,4-difluorophenyl)-2-(1-methyl-1H-indol-3-yl)-4-oxo-butanoic Acid]: the melting point is 192 to 193 °C.
The compound `O=C(CC(C(=O)O)c1c[nH]c2cc(OCc3ccccc3)ccc12)c1ccc(F)cc1F` (centres unmarked) [Compound (4-2), 2-(6-benzyloxy-1H-indol-3-yl)-4-(2,4-difluorophenyl)-4-oxo-butanoic Acid] registered a melting point of 177 to 178 °C.
Turning to `CCCOc1ccc2[nH]cc(CC(=O)O)c2c1` [compound #38, 5-(1-Propoxy)-3-indoleacetic Acid], the melting point is 133.6 to 136.8 °C.
`O=C(CC(C(=O)O)c1c[nH]c2ccc(F)cc12)c1ccc(F)cc1F` (centres unmarked) [Compound (3-1), 4-(2,4-difluorophenyl)-2-(5-fluoro-1H-indol-3-yl)-4-oxo-butanoic Acid]: the melting point was in the range of 207 to 208 °C.
Take `O=C(CC(C(=O)O)c1c[nH]c2ccccc12)c1ccccc1` (centres unmarked) [compound #20, 4-Phenyl-2-(1H-indol-3-yl)-4-oxo-butanoic Acid]: the melting point was 149 to 150 °C.
`CCCCOc1ccc2[nH]cc(CC(=O)O)c2c1` [compound #39, 5-(1-Butoxy)-3-indoleacetic Acid] came in with a melting point of 137.8 to 141.1 °C.
The compound `O=C(CC(C(=O)O)c1c[nH]c2ccc(Cl)cc12)c1ccc(F)cc1F` (centres unmarked) [Compound (3-2), 2-(5-chloro-1H-indol-3-yl)-4-(2,4-difluorophenyl)-4-oxo-butanoic Acid] showed a melting point of 236 to 239 °C.
